# US12415803B2, “Fused imidazopyridines as reversible inhibitors of Brutons Tyrosine Kinase (BTK)” (Merck Patent GmbH, priority 2018, dated 2025)
# Experiments:
# full-length human BTK = full-length human BTK (Homo sapiens (Human), UniProt Q06187); assay: BTK IC50 Enzyme Assay (microfluidic off-chip mobility shift kinase assay); format: biochemical; details: Btk Enzymatic IC50 Assay, 90 min at 27 C;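 note: Read-out separates phosphorylated peptide product from substrate by their charge-to-mass difference, with IC50 fitted from log inhibitor concentration against percent enzyme activity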
# Chain of full-length human BTK (Q06187 whole entry): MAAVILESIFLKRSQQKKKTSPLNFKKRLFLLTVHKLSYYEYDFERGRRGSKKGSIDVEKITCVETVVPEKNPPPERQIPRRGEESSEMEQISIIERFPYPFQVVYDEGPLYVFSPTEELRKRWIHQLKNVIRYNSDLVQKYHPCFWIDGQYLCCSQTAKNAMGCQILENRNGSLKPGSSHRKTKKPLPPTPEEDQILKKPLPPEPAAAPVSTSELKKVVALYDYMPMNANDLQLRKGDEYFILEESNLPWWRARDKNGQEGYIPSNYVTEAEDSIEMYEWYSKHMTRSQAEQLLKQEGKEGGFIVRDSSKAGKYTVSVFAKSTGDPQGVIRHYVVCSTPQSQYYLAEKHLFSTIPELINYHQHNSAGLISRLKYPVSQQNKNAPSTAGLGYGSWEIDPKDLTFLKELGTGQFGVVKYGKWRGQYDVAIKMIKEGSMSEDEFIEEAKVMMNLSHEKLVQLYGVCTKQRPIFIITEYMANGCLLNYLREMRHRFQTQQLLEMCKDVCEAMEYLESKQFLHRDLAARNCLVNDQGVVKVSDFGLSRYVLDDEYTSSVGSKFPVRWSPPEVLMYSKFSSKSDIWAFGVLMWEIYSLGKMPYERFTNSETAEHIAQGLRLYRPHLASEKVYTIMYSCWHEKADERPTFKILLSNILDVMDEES
# Btk [1] = biological target: T1, Btk (Homo sapiens (Human), UniProt Q06187); assay: Time Dependent Human Whole Blood IC50 Assay; format: cell-based; details: read-out: Assay C (IC50)
# T1 sequence (Q06187 whole entry): as above
# Btk [2] = biological target: T1, Btk; assay: Btk PBMC IC50 Cell Assay (anti-IgM-induced CD69 expression on B cells); format: cell-based; details: anti-IgM-induced CD69 expression on CD19 positive cells in human PBMCs;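 note: freshly isolated human PBMCs, IC50 from concentration-response of the share of CD19+ cells expressing CD69 after anti-IgM BCR stimulation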
Structure (SMILES),IC50 (full-length human BTK),IC50 (Btk [1]),IC50 (Btk [2])
"Cc1nn(C)c(C)c1-c1nc2c(-c3ccc4c(c3)CCCC[C@H]4NC(=O)c3noc(C4(C)CC4)n3)ccnc2[nH]1 [Compound 12, 5-(1-Methyl-cyclopropyl)-[1,2,4]oxadiazole-3-carboxylic acid {(R)-2-[2-(1,3,5-trimethyl-1H-pyrazol-4-yl)-3H-imidazo[4,5-b]pyridin-7-yl]-6,7,8,9-tetrahydro-5H-benzocyclohepten-5-yl}-amide]",< 1 nM,1 to 10 nM,1 to 10 nM
"CCn1nc(C)c(-c2nc3c(-c4ccc5c(c4)CCCCC5NC(=O)c4nc(C5(C)CC5)no4)ccnc3[nH]2)c1C (stereo not drawn) [Compound 135, 3-(1-Methyl-cyclopropyl)-[1,2,4]oxadiazole-5-carboxylic acid {2-[2-(1-ethyl-3,5-dimethyl-1H-pyrazol-4-yl)-3H-imidazo[4,5-b]pyridin-7-yl]-6,7,8,9-tetrahydro-5H-benzocyclohepten-5-yl}-amide]",< 1 nM,1 to 10 nM,1 to 10 nM
"Cc1c(-c2nc3c(-c4ccc5c(c4)CCC[C@H]5NC(=O)c4noc(C(C)(C)C)n4)ccnc3[nH]2)cnn1C(C)C [Compound 164, 5-tert-Butyl-[1,2,4]oxadiazole-3-carboxylic acid {(R)-6-[2-(1-isopropyl-5-methyl-1H-pyrazol-4-yl)-3H-imidazo[4,5-b]pyridin-7-yl]-1,2,3,4-tetrahydro-naphthalen-1-yl}-amide]",1 to 10 nM,> 100 nM,1 to 10 nM
"Cc1nn(C(C)C)cc1-c1nc2nccc(-c3ccc4c(c3)CCCC[C@H]4NC(=O)c3nnc(C(C)(C)C)o3)c2[nH]1 [Compound 78, 5-tert-butyl-N-[(5R)-2-{2-[3-methyl-1-(propan-2-yl)-1H-pyrazol-4-yl]-1H-imidazo[4,5-b]pyridin-7-yl}-6,7,8,9-tetrahydro-5H-benzo[7]annulen-5-yl]-1,3,4-oxadiazole-2-carboxamide]",< 1 nM,1 to 10 nM,1 to 10 nM
Cc1nn(C)c(C)c1-c1nc2c(-c3ccc4c(c3)CCCCC4NC(=O)c3cc(C(C)(C)C)on3)ccnc2[nH]1 (stereo not drawn) [Compound 70],1 to 10 nM,10 to 100 nM,1 to 10 nM
"CCc1cc(-c2nc3nccc(-c4ccc5c(c4)CCCC[C@@H]5NC(=O)c4nnc(C(C)(C)C)o4)c3[nH]2)nn1C [Compound 89, 5-tert-butyl-N-[(5S)-2-[2-(5-ethyl-1-methyl-1H-pyrazol-3-yl)-1H-imidazo[4,5-b]pyridin-7-yl]-6,7,8,9-tetrahydro-5H-benzo[7]annulen-5-yl]-1,3,4-oxadiazole-2-carboxamide]",< 1 nM,1 to 10 nM,1 to 10 nM
"CCc1cc(-c2nc3c(-c4ccc5c(c4)CCCCC5NC(=O)c4nc(C(C)(C)C)no4)ccnc3[nH]2)nn1C (stereo not drawn) [Compound 133, 3-tert-Butyl-[1,2,4]oxadiazole-5-carboxylic acid {2-[2-(5-ethyl-1-methyl-1H-pyrazol-3-yl)-3H-imidazo[4,5-b]pyridin-7-yl]-6,7,8,9-tetrahydro-5H-benzocyclohepten-5-yl}-amide]",< 1 nM,1 to 10 nM,1 to 10 nM
CC(C)n1cc(-c2nc3c(-c4ccc5c(c4)CCCC[C@H]5NC(=O)c4cc(C(C)(C)C)on4)ccnc3[nH]2)cn1 [Compound 92],< 1 nM,10 to 100 nM,1 to 10 nM
"Cc1cc(-c2nc3c(-c4ccc5c(c4)CCCC[C@H]5NC(=O)c4nnc(C(C)(C)C)o4)ccnc3[nH]2)nn1C [Compound 153, 5-tert-Butyl-[1,3,4]oxadiazole-2-carboxylic acid {(R)-2-[2-(1,5-dimethyl-1H-pyrazol-3-yl)-3H-imidazo[4,5-b]pyridin-7-yl]-6,7,8,9-tetrahydro-5H-benzocyclohepten-5-yl}-amide]",< 1 nM,1 to 10 nM,1 to 10 nM
"Cc1nn(C)c(C)c1-c1nc2c(-c3ccc4c(c3)CCCCC4NC(=O)c3nnc(C(C)(C)C)o3)ccnc2[nH]1 (stereo not drawn) [Compound 116, 5-tert-Butyl-[1,3,4]oxadiazole-2-carboxylic acid {2-[2-(1,3,5-trimethyl-1H-pyrazol-4-yl)-3H-imidazo[4,5-b]pyridin-7-yl]-6,7,8,9-tetrahydro-5H-benzocyclohepten-5-yl}-amide]",1 to 10 nM,10 to 100 nM,1 to 10 nM
"Cc1c(-c2nc3c(-c4ccc5c(c4)CCCCC5NC(=O)c4nc(C(C)(C)C)no4)ccnc3[nH]2)cnn1C(C)C (stereo not drawn) [Compound 136, 3-tert-Butyl-[1,2,4]oxadiazole-5-carboxylic acid {2-[2-(1-isopropyl-5-methyl-1H-pyrazol-4-yl)-3H-imidazo[4,5-b]pyridin-7-yl]-6,7,8,9-tetrahydro-5H-benzocyclohepten-5-yl}-amide]",< 1 nM,10 to 100 nM,1 to 10 nM
Cc1nn(C)c(C)c1-c1nc2nccc(-c3ccc4c(c3)CCCC[C@H]4NC(=O)c3cc(C(C)(C)C)on3)c2[nH]1 [Compound 72],< 1 nM,10 to 100 nM,1 to 10 nM
"CC(C)n1cc(-c2nc3c(-c4ccc5c(c4)CCCCC5NC(=O)c4cc(C(C)(C)C)on4)ccnc3[nH]2)cn1 (stereo not drawn) [Compound 91, 5-tert-butyl-N-(2-{2-[1-(propan-2-yl)-1H-pyrazol-4-yl]-3H-imidazo[4,5-b]pyridin-7-yl}-6,7,8,9-tetrahydro-5H-benzo[7]annulen-5-yl)-1,2-oxazole-3-carboxamide]",< 1 nM,1 to 10 nM,1 to 10 nM
"CC(C)(C)c1noc(C(=O)NC2CCCCc3cc(-c4ccnc5[nH]c(-c6cnn(C7CC7)c6)nc45)ccc32)n1 (stereo not drawn) [Compound 83, 3-tert-butyl-N-{2-[2-(1-cyclopropyl-1H-pyrazol-4-yl)-3H-imidazo[4,5-b]pyridin-7-yl]-6,7,8,9-tetrahydro-5H-benzo[7]annulen-5-yl}-1,2,4-oxadiazole-5-carboxamide]",< 1 nM,1 to 10 nM,1 to 10 nM
"Cc1nn(C)c(C)c1-c1nc2c(-c3ccc4c(c3)CCCCC4NC(=O)c3nc(C4(C)CC4)no3)ccnc2[nH]1 (stereo not drawn) [Compound 143, 3-(1-Methyl-cyclopropyl)-[1,2,4]oxadiazole-5-carboxylic acid {2-[2-(1,3,5-trimethyl-1H-pyrazol-4-yl)-3H-imidazo[4,5-b]pyridin-7-yl]-6,7,8,9-tetrahydro-5H-benzocyclohepten-5-yl}-amide]",< 1 nM,10 to 100 nM,1 to 10 nM
"Cc1nn(C(C)C)c(C)c1-c1nc2c(-c3ccc4c(c3)CCCC[C@@H]4NC(=O)c3nc(C4(C)CC4)no3)ccnc2[nH]1 [Compound 2, N-[(5S)-2-[2-[3,5-dimethyl-1-(propan-2-yl)-1H-pyrazol-4-yl]-1H-imidazo[4,5-b]pyridin-7-yl]-6,7,8,9-tetrahydro-5H-benzo[7]annulen-5-yl]-3-(1-methylcyclopropyl)-1,2,4-oxadiazole-5-carboxamide]",< 1 nM,1 to 10 nM,1 to 10 nM
"Cc1nn(C)c(C)c1-c1nc2c(-c3ccc4c(c3)CCC[C@H]4NC(=O)c3nc(C(C)(C)C)no3)ccnc2[nH]1 [Compound 74, 3-tert-butyl-N-[(1R)-6-[2-(1,3,5-trimethyl-1H-pyrazol-4-yl)-3H-imidazo[4,5-b]pyridin-7-yl]-1,2,3,4-tetrahydronaphthalen-1-yl]-1,2,4-oxadiazole-5-carboxamide]",< 1 nM,10 to 100 nM,1 to 10 nM
"Cc1c(-c2nc3c(-c4ccc5c(c4)CCCC5NC(=O)c4nc(C(C)(C)C)no4)ccnc3[nH]2)cnn1C (stereo not drawn) [Compound 111, 3-tert-Butyl-[1,2,4]oxadiazole-5-carboxylic acid {6-[2-(1,5-dimethyl-1H-pyrazol-4-yl)-3H-imidazo[4,5-b]pyridin-7-yl]-1,2,3,4-tetrahydro-naphthalen-1-yl}-amide]",1 to 10 nM,> 100 nM,1 to 10 nM
"Cc1nn(C(C)C)cc1-c1nc2c(-c3ccc4c(c3)CCCCC4NC(=O)c3nc(C4(C)CC4)no3)ccnc2[nH]1 (stereo not drawn) [Compound 134, 3-(1-Methyl-cyclopropyl)-[1,2,4]oxadiazole-5-carboxylic acid {2-[2-(1-isopropyl-3-methyl-1H-pyrazol-4-yl)-3H-imidazo[4,5-b]pyridin-7-yl]-6,7,8,9-tetrahydro-5H-benzocyclohepten-5-yl}-amide]",< 1 nM,1 to 10 nM,1 to 10 nM
"Cc1nn(C(C)C)c(C)c1-c1nc2c(-c3ccc4c(c3)CCCC[C@H]4NC(=O)c3noc(C4(C)CC4)n3)ccnc2[nH]1 [Compound 33, 5-(1-Methyl-cyclopropyl)-[1,2,4]oxadiazole-3-carboxylic acid {(R)-2-[2-(1-isopropyl-3,5-dimethyl-1H-pyrazol-4-yl)-3H-imidazo[4,5-b]pyridin-7-yl]-6,7,8,9-tetrahydro-5H-benzocyclohepten-5-yl}-amide]",< 1 nM,1 to 10 nM,1 to 10 nM
"Cc1nn(C(C)C)cc1-c1nc2c(-c3ccc4c(c3)CCCCC4NC(=O)c3nnc(C(C)(C)C)o3)ccnc2[nH]1 (stereo not drawn) [Compound 118, 5-tert-Butyl-[1,3,4]oxadiazole-2-carboxylic acid {2-[2-(1-isopropyl-3-methyl-1H-pyrazol-4-yl)-3H-imidazo[4,5-b]pyridin-7-yl]-6,7,8,9-tetrahydro-5H-benzocyclohepten-5-yl}-amide]",< 1 nM,1 to 10 nM,1 to 10 nM
"Cc1c(-c2nc3c(-c4ccc5c(c4)CCCC[C@H]5NC(=O)c4noc(C5(C)CC5)n4)ccnc3[nH]2)cnn1C(C)C [Compound 24, 5-(1-Methyl-cyclopropyl)-[1,2,4]oxadiazole-3-carboxylic acid {(R)-2-[2-(1-isopropyl-5-methyl-1H-pyrazol-4-yl)-3H-imidazo[4,5-b]pyridin-7-yl]-6,7,8,9-tetrahydro-5H-benzocyclohepten-5-yl}-amide]",< 1 nM,1 to 10 nM,1 to 10 nM
